For series [1], the target named is T1, DNA topoisomerase 1 (Homo sapiens) (UniProt P11387).
T1 sequence (whole entry): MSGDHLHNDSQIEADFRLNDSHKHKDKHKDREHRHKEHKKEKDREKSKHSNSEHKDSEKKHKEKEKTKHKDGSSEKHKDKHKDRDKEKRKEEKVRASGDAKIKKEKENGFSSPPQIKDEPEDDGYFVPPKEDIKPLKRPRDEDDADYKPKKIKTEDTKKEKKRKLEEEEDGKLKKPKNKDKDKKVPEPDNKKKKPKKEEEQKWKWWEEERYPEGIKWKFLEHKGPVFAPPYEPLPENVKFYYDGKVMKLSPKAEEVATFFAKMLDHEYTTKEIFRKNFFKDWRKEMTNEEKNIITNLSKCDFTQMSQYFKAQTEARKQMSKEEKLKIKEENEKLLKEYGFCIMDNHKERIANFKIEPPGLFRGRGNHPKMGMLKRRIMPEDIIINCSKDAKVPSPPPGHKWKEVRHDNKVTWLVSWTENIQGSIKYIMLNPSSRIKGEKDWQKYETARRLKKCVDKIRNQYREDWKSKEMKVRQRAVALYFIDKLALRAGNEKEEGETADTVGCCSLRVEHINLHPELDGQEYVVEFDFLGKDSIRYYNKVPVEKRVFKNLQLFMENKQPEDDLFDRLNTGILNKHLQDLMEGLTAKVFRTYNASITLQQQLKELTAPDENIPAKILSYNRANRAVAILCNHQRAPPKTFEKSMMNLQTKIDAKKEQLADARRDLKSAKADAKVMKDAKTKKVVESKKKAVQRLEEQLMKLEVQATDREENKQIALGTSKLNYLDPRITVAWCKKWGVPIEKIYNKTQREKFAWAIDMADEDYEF
The experiment in a line: Inhibition of human DNA topoisomerase 1 at 10 uM using supercoiled DNA as substrate incubated for 30 mins by EtBr staining based agarose gel electrophoresis method relative to control.

Another series has as its system MCF7. The experiment in a line: Cytotoxicity against human MCF7 cells incubated for 48 hrs by MTT assay. To be noted: MCF7, 48 h. The class given is functional, cell-based. For orientation: Tetrazolium dyes change colour on reduction, which living cells bring about.
The test system of a further series is MDA-MB-231. As to the kind of experiment: Cytotoxicity against human MDA-MB-231 cells incubated for 48 hrs by MTT assay. The class given is functional, cell-based. The following applies: MDA-MB-231, 48 h.
For the next series, the system named is PC-3. As to the kind of experiment: Cytotoxicity against human PC-3 cells incubated for 48 hrs by MTT assay. The following applies: PC-3, 48 h. Type of series: functional, cell-based.
Series [2] concerns HOS. The experiment in a line: Cytotoxicity against human HOS cells incubated for 48 hrs by MTT assay. Type of series: functional, cell-based.
A short description of series [3]: Cytotoxicity against human BJ cells incubated for 48 hrs by MTT assay. Type of series: toxicity, cell-based.
Another series relates to DU-145. The experiment in a line: Cytotoxicity against human DU-145 cells incubated for 48 hrs by MTT assay. The class given is functional, cell-based. The following applies: DU-145, 48 h.
A further series has as its system SK-OV-3. As to the kind of experiment: Cytotoxicity against human SK-OV-3 cells incubated for 48 hrs by MTT assay. The following applies: SK-OV-3, 48 h. Type of series: functional, cell-based.
The test system of another series is PANC-1. As to the kind of experiment: Cytotoxicity against human PANC-1 cells incubated for 48 hrs by MTT assay. The class given is functional, cell-based. To be noted: PANC-1, 48 h.
The subject of a further series is SAOS-2. The experiment in a line: Cytotoxicity against human SAOS-2 cells incubated for 48 hrs by MTT assay. Type of series: functional, cell-based. The following applies: SAOS-2, 48 h.
Another series relates to MG-63. The experiment in a line: Cytotoxicity against human MG-63 cells incubated for 48 hrs by MTT assay. The class given is functional, cell-based.
Series [4] can be described thus: Acute toxicity in Swiss albino mouse assessed as change in ALT level at 200 mg/kg, po administered for 14 days. The following applies: in vivo, 336 h, time 14 day. The class given is organism-based.
A short description of series [5]: Acute toxicity in Swiss albino mouse assessed as change in AST level at 200 mg/kg, po administered for 14 days. Type of series: organism-based. To be noted: in vivo, 336 h, time 14 day.
Series [6] is described as follows: Acute toxicity in Swiss albino mouse assessed as change in GGT level at 200 mg/kg, po administered for 14 days. Type of series: organism-based. The following applies: in vivo, 336 h, time 14 day.
A further series relates to HCT-116. The experiment in a line: Cytotoxicity against human HCT-116 cells incubated for 48 hrs by MTT assay. Type of series: functional, cell-based. To be noted: HCT-116, 48 h.
Series [7] is described as follows: Selectivity ratio of IC50 for human BJ cells to IC50 for human HOS cells.
Series [8] relates to HOS. As to the kind of experiment: Cytotoxicity against human HOS cells cultured as 3D spheroids incubated for 120 hrs. Type of series: functional, cell-based.
The test system of series [9] is HOS. As to the kind of experiment: Induction of cell cycle arrest in human HOS cells assessed as accumulation of cells at G0/G1 phase after 48 hrs by flow cytometry analysis (reference value: 52.39 %). Type of series: functional. (In general: Flow cytometry measures light scatter and fluorescence of single cells or particles in a stream.)
Series [10] relates to HOS. As to the kind of experiment: Induction of cell cycle arrest in human HOS cells assessed as accumulation of cells at S phase after 48 hrs by flow cytometry analysis (reference value: 32.75 %). The class given is functional.
For series [11], the system named is HOS. The experiment in a line: Induction of cell cycle arrest in human HOS cells assessed as accumulation of cells at G2/M phase after 48 hrs by flow cytometry analysis (reference value: 14.86 %). The class given is functional.
Series [12] concerns HOS. As to the kind of experiment: Induction of cell cycle arrest in human HOS cells assessed as accumulation of cells at pre-G1 phase after 48 hrs by flow cytometry analysis (reference value: 2.18 %). The class given is functional.
In series [13] the test system is HOS. As to the kind of experiment: Induction of apoptosis in human HOS cells assessed as fold increase in p53 gene expression at 1.47 uM incubated for 48 hrs by RT-qPCR analysis relative to positive control. The class given is functional.
Series [14] concerns HOS. As to the kind of experiment: Induction of apoptosis in human HOS cells assessed as early apoptotic cells at 5 uM incubated for 48 hrs by Annexin-V FITC/PI staining based flow cytometry analysis (reference value: 0.46%). The class given is functional.
The subject of series [15] is HOS. The experiment in a line: Induction of apoptosis in human HOS cells assessed as late apoptotic cells at 5 uM incubated for 48 hrs by Annexin-V FITC/PI staining based flow cytometry analysis (reference value: 0.21%). Type of series: functional.
Series [16] has as its system HOS. As to the kind of experiment: Induction of apoptosis in human HOS cells assessed as necrotic cells at 5 uM incubated for 48 hrs by Annexin-V FITC/PI staining based flow cytometry analysis (reference value: 1.51%). The class given is functional.
The subject of series [17] is HOS. The experiment in a line: Induction of apoptosis in human HOS cells assessed as fold increase in BAX gene expression at 1.47 uM incubated for 48 hrs by RT-qPCR analysis relative to positive control. Type of series: functional.
The test system of series [18] is HOS. As to the kind of experiment: Induction of apoptosis in human HOS cells assessed as fold decrease in BCL-2 gene expression at 1.47 uM incubated for 48 hrs by RT-qPCR analysis relative to positive control. The class given is functional.
Series [19] deals with HOS. As to the kind of experiment: Induction of apoptosis in human HOS cells assessed as fold decrease in Her2 gene expression at 1.47 uM incubated for 48 hrs by RT-qPCR analysis relative to positive control. Type of series: functional. In general terms: Quantitative PCR measures a nucleic acid by following its amplification.
The nature of series [20]: Acute toxicity in Swiss albino mouse assessed as change in ALT level at 1.47 uM/kg, po administered for 14 days. Type of series: organism-based. The following applies: in vivo, 336 h, time 14 day.
The nature of series [21]: Acute toxicity in Swiss albino mouse assessed as change in AST level at 1.47 uM/kg, po administered for 14 days. The class given is organism-based. The following applies: in vivo, 336 h, time 14 day.
Series [22] is described as follows: Acute toxicity in Swiss albino mouse assessed as change in GGT level at 1.47 uM/kg, po administered for 14 days. The class given is organism-based. To be noted: in vivo, 336 h, time 14 day.
In the next series the test system is C-26. The experiment in a line: Antitumor activity against mouse C26 cells xenografted in BALB/c mouse assessed as decrease in tumor volume at 250 mg/kg, po after 35 days. The class given is functional, organism-based. The following applies: time 35.0 day.
The nature of series [23]: Antitumor activity against mouse C26 cells xenografted in BALB/c mouse assessed as decrease in tumor volume at 250 mg/kg, po after 1 week. Type of series: functional, C-26. Details: scale not given: the % may be the effect or the level left. The following applies: time 1 weeks.
The nature of series [24]: Antitumor activity against mouse C26 cells xenografted in BALB/c mouse assessed as decrease in tumor volume at 250 mg/kg, po after 5 weeks. Type of series: functional, C-26. Details: scale not given: the % may be the effect or the level left.
Setting [25] is: Homo sapiens, MG-63, 48 h, read-out: IC50.

SMILES strings stand for the structures. The source made the active and inactive calls. No cut-off for these calls is given here.

A word on the IC50: it is the concentration needed to halve the response being measured. As to `COc1cc2nc3n(c(=O)c2cc1OC)c(=O)c1cc2ccccc2c(=O)n13`, in series [1], the inhibition entry was “Active”. Besides, the IC50 with MCF7, in the series with MDA-MB-231, in the series on PC-3 and in the series on HOS [2] was above 100 µM throughout.
For `O=C1NC(=S)n2c1cc1ccccc1c2=O`, the inhibition result in [1] is “Active”. Further, the IC50 with MCF7 was 12.6 µM; in the series with MDA-MB-231, above 100 µM; in the series with PC-3, above 100 µM; in the series with HOS [2], above 100 µM. The same molecule registered an IC50 at 48 h in series [3] of 258 µM.
As to `COc1cccc2c1C(=O)c1c(O)c3c(c(O)c1C2=O)C[C@@](O)(C(=O)CO)C[C@@H]3O[C@H]1C[C@H](N)[C@H](O)[C@H](C)O1` [DOXORUBICIN], the IC50 in the series on MCF7 was 0.01 µM; in the series on MDA-MB-231, 1.15 µM; in the series with PC-3, 0.567 µM; with DU-145, 0.072 µM; in the series on SK-OV-3, 0.033 µM; in the series with PANC-1 it was 0.086 µM. The figures for the IC50 in the series with HOS [2], with SAOS-2 and with MG-63 (mg-63) were 0.03 µM, 0.144 µM and “Not Active”, respectively. For the same molecule, the Activity is 60 U/L in [4], 31 U/L in series [5] and 13.7 U/L in [6].
Consider `CC[C@@]1(O)C(=O)OCc2c1cc1n(c2=O)Cc2cc3ccccc3nc2-1` [CAMPTOTHECIN], for which the IC50 was 0.324 µM in the series on MCF7; 0.108 µM with MDA-MB-231; 0.234 µM in the series on PC-3; 0.042 µM in the series on DU-145; 0.051 µM with HCT-116; 0.241 µM with SK-OV-3. For the same molecule, the concentration for half-maximal inhibition (IC50) with PANC-1 is 0.233 µM; with HOS [2], 0.049 µM; with SAOS-2 it was 0.055 µM; with MG-63 (setting [25]) it was 0.046 µM.
Take `O=c1/c(=C\c2ccccc2)n2c(=O)c3ccccc3nc2n1CCN1CCOCC1`: the inhibition entry in [1] is “Active”. The IC50 is 56.4 µM in the series with MCF7; 5.96 µM with MDA-MB-231; above 100 µM with PC-3; 3.81 µM with DU-145; 3.67 µM in the series with HCT-116; 3.48 µM with SK-OV-3. The IC50 in the series with PANC-1 came to 19.1 µM; in the series on HOS [2], 1.47 µM; with SAOS-2 it was 3.2 µM; in the series on MG-63 (setting [25]), 17.9 µM. In series [3], this molecule had an IC50 at 48 h of 4.25 µM. In series [7], the “Ratio IC50” value is 2.89. For the same molecule, the result in the series with HOS [8] and with C-26 was Active. Further, the Activity worked out at 61.08% with HOS [9]; 27.51% with HOS [10]; 11.41% in the series with HOS [11]; 39.61% in the series on HOS [12]; 3.22% in the series on HOS [14]; 23.58% with HOS [15]. Besides, the Activity in the series on HOS [16] was 12.81%; in series [20], 22 U/L; in [21] it was 19.5 U/L; in series [22], 10.3 U/L; in [23], 35.5%; in series [24] it was 75.36%. The “fold change (FC)” value in the series on HOS [13] is given as 4.907; in the series with HOS [17] it was 6.143; in the series with HOS [18] it was 0.146; in the series on HOS [19], 0.237.
On to `O=c1c2ccccc2nc2n1c(=O)c1cc3ccccc3c(=O)n12`, for which the inhibition result in series [1] is “Active”. Besides, the IC50 in the series on MCF7 was above 100 µM; in the series with MDA-MB-231 it was 70.7 µM; in the series with PC-3, above 100 µM; with HOS [2], above 100 µM. Further, the IC50 at 48 h in series [3] was 128 µM.
As for `O=C1c2cc3ccccc3c(=O)n2C(=S)N1c1ccccc1`, the inhibition result in series [1] is “Active”. The IC50 with MCF7, in the series on MDA-MB-231, in the series with PC-3 and in the series with HOS [2] was above 100 µM each time.

These data come from ChEMBL document CHEMBL5518191, “Camptothecin structure simplification elaborated new imidazo[2,1-b]quinazoline derivative as a human topoisomerase I inhibitor with efficacy against bone cancer cells and colon adenocarcinoma” (Eur J Med Chem, 2024).
